Assay results as given in patent US20260286254A1, “Bleach Catalyst and Composition Comprising Said Catalyst” (Reckitt Benckiser Vanish B.V., priority 2023, published 2026).
“Also recorded” adds a separate entry of the source.

Tests used:
[1] = Kinetic of Tropaeolin-O degradation (UV-Vis absorbance at 430 nm); conditions: statement in text on Table 5
Experimental: These tests were performed following the procedure described in US2012/0205581 A1. Here, Tropaeolin-O was used as sensor molecule to describe the oxidation kinetic of the different catalysts. The catalytic activity of a bleach catalyst is given by the photocatalytic degradation of tropaeolin-O under visible light irradiation.
The kinetic of tropaeolin-O degradation of each sample was determined by measuring the UV-Vis absorbance of the sample every 60 seconds for a total period of 20 minutes at 430 nm. This was done using a UV-Vis Evolution 220 FC-1135 spectrophotometer.
A base detergent system containing tropaeolin-O was prepared by adding to 1000 mL of demineralized water at 40° C., the following ingredients: • 2.92 g of Ariel Gel (as sold in the UK), • 0.088 g of Tropaeolin-O (purity ex. Sigma and used as received), • 1.75 g of Sodium percarbonate (purity: 13.3 wt. % active oxygen), • 0.10 g of bleach activator tetraacetylethylenediamine (TEAD, purity: 92 wt. % active) […]
The 430 nm absorption peak associated to the decomposition of the sensor molecule, i.e., Tropaeolin-O, after addition of a detergent system was followed over time. […] Absorbance in Table 5 is given in absorbance units (a.u.)

[2] = Stability of bleach catalysts: UV-vis absorbance at 445 nm and appearance of alkaline solutions; format: physicochemical; conditions: for Absorption at 445 nm, t = 0 / Absorption at 445 nm, t = 48 h: 0.28 mM in 50 wt. % water/50 wt. % acetone; for Absorption at 445 nm, t = 0 / Appearance, t = 0: pH 11, t = 0; for Absorption at 445 nm, t = 48 h / Appearance, t = 48 h: pH 11, t = 48 h; for Appearance, t = 0 / Appearance, t = 48 h: alkaline conditions
Experimental: The stability of bleach catalysts having the structures shown in Table 1 was determined by preparing solutions of these compounds and measuring their UV-vis absorbance. The person skilled in the art will know how to synthesise the catalysts shown below starting from saccharine.
A solution of each compound was prepared by dissolving each compound in a mixture of 50 wt. % water and 50 wt. % acetone. The concentration of each solution was 0.28 mM.
The pH of each solution was set to 11 by adding few drops of a diluted solution of sodium percarbonate to mimic the alkaline conditions of the final formula.
The UV-vis absorption of each solution was measured just after preparing the samples (t=0), then at 2 h and 48 h using a UV-Vis Evolution 220 FC-1135 spectrophotometer using a 2 mm quartz cuvette.

Compound	activity / performance (tropaeolin-O decomposition), in words [1]	stability of the bleach catalyst, in words [2]	Absorption at 445 nm, t = 0 [2]	Absorption at 445 nm, t = 48 h [2]	Appearance, t = 0 [2]	Appearance, t = 48 h [2]
O=S1(=O)N=C(c2ccccn2)c2ccccc21 [Bleach catalyst 1, 3-(pyridin-2-yl)-1,2-benzisothiazole-1,1-dioxide]	enhanced activity	stable	<0.05	<0.05	Transparent	Transparent
O=S1(=O)N=C(c2ccccc2)c2ccccc21 [Bleach catalyst B, 3-phenyl-1,2-benzisothiazole-1,1-dioxide]			<0.05	<0.05	Transparent	Transparent
CC1=NS(=O)(=O)c2ccccc21 [Bleach catalyst A, 3-methyl-1,2-benzisothiazole-1,1-dioxide]			<0.05	0.37	Transparent	coloured/yellow; also recorded: Yellowing
O=S1(=O)N=C(c2cccnc2)c2ccccc21 [Bleach catalyst 2, 3-(pyridin-3-yl)-1,2-benzisothiazole-1,1-dioxide]	enhanced activity	stable	<0.05	<0.05	Transparent	Transparent
CC(C)(C)C1=NS(=O)(=O)c2ccccc21 [Bleach catalyst C, 3-tert-butyl-1,2-benzisothiazole-1,1-dioxide]			<0.05	<0.05	Transparent	Transparent
CCCCCCCCCCCCC1=NS(=O)(=O)c2ccccc21 [Bleach catalyst D, 3-lauryl-1,2-benzisothiazole-1,1-dioxide]			<0.05	0.07	Transparent	coloured/yellow; also recorded: Yellowing
